Source: patent publication US10989721B2, “Additive channels” (Emulate Inc., priority 2016, dated 2021)
“Also recorded” adds a separate entry of the source. Structures can show the parent of a compound that is named as a salt. Positions of bridges follow the written chain, without caps; N, C: chain ends. Non-standard residues stand in square brackets, D forms with d. Residues, ends and D or L forms follow the SMILES beside them. hArg = N=C(N)NCCCC[C@H](N)C(=O)O; Mpa = O=C(O)CCS

How the values were obtained:
Assay type in all cases: cell-based, human
platelets = assay: Vessel-On-Chip blood perfusion: platelet coverage/aggregation by fluorescence imaging (CD41 label); details: for platelet aggregate formation compared to untreated blood: hu5C8 240 μg/mL, sCD40L 10 ng/ml, alone or combined, 4 donors, 60 μl/minute
Procedure: (§1) Briefly, human blood was drawn in citrate buffer and used within 4 hours. Platelets were stained using fluorescently labeled non-blocking antibodies for the platelet surface marker CD41 and low dosages of fluorescent fibrinogen were added in order to visualize fibrin deposition. Blood was re-calcified in order to re-establish the full coagulation potential, then introduced in the biomimetic vessel-on-chip from the main inlet (embodiments of inlets shown in FIG. 18A-1, FIG. 18A-2 and FIG. 19C). The outlet of the chip was connected to a pulling syringe pump with a system of tubing and connectors made of medical grade silicon that excludes any metal components or potential causes of platelet activation (FIG. 5A).
(§2) After 14 minutes of perfusion, the flow was interrupted and the chips were immediately imaged via fluorescence microscopy (FIG. 18C and FIG. 19D). In healthy conditions, endothelial cells will provide an antithrombotic surface where blood can flow smoothly, and indeed we detected minimal platelet adhesion or fibrin deposition in our vessel-on-chip after blood perfusion in control conditions, FIG. 18C, Blood.
Cell-monolayer integrity: Transmission light microscopy was routinely used to assess cell-monolayer integrity prior to each experiment. Before every experiment, each one of the endothelialized channels was inspected via light microscopy. Samples showing any sign of discontinuity in the endothelium were discarded. Vascular leakage assay as test for tissue integrity: The ability of cells to form a confluent monolayer was monitored for one week measuring vascular leakage of dextran (ThermoFisher). In order to measure vascular leakage the vascular channel was perfused with cell culture medium containing fluorescent dextran-cascade blue (3 kDa, ThermoFisher). The apical compartment was perfused with plain medium (without FBS). At various time points, the effluent from the chip was collected, and the relative fluorescence of the top and bottom compartments were measured using a standard plate reader. […] TNF-alpha Stimulation: In some experiment endothelial cells were stimulate with 50 ng/ml of TNF (Sigma) for 6 hours in order to induce vascular inflammation before blood perfusion. Experiments with Blood: Blood Samples And Endothelium: Citrated human blood (Research Blood Components, Cambridge, Mass.) was used within 4 hours of a blood draw in order to minimize pre-analytical effects on platelet function. Before every experiment, each one of the endothelialized channels (i.e. microchannels having an endothelial cell layer) was inspected via light microscopy. Samples showing any sign of discontinuity in the endothelium were discarded. […] USA) was at room temperature for 20 minutes. Cloning, Expression and Purification: Generation of IgG2σ was previously described (Vafa, O. et al. An engineered Fc variant of an IgG eliminates all immune effector functions via structural perturbations. Methods 65:114-126 (2014)). 5c8 human IgG1 and human IgG2-Sigma Fc variants were produced in Sino Biological Inc. Gene fragments encoding the 5c8 heavy and light chains were synthesized and cloned into mammalian expression vectors. DNA was produced and used in transient transfections with HEK293. Antibodies were purified using Protein A affinity chromatography and formulated in phosphate-buffered saline (DPBS), pH 7.4. Blood Pre-treatment and Perfusion: Formation of IC (preformed IC): Hu5C8, IgG2σ (control) (both provided by Janssen or provided as described herein) For studies with preformed IC, Hu5C8 or IgG2σ as an isotype control were combined with sCD40L (Tonbo Biosciences, San Diego, Calif.) in PBS, in a ratio of 1 molecule of sCD40L to 3000 molecules of antibody. After 20 minutes incubation at room temperature, the solution was diluted in a blood sample to reach the final concentration of 240 μg/ml (Hu5C8) and 10 ng/ml (sCD40L). […]

fibrin = assay: Vessel-On-Chip blood perfusion: fibrin deposition by fluorescent fibrinogen imaging; details: for fibrin deposition on the endothelium compared to untreated blood: hu5C8 240 μg/mL, sCD40L 10 ng/ml, alone or combined, 4 donors, 60 μl/minute
Procedure: as §1, §2
Cell-monolayer integrity: Transmission light microscopy was routinely used to assess cell-monolayer integrity prior to each experiment. Before every experiment, each one of the endothelialized channels was inspected via light microscopy. Samples showing any sign of discontinuity in the endothelium were discarded. Vascular leakage assay as test for tissue integrity: The ability of cells to form a confluent monolayer was monitored for one week measuring vascular leakage of dextran (ThermoFisher). In order to measure vascular leakage the vascular channel was perfused with cell culture medium containing fluorescent dextran-cascade blue (3 kDa, ThermoFisher). The apical compartment was perfused with plain medium (without FBS). At various time points, the effluent from the chip was collected, and the relative fluorescence of the top and bottom compartments were measured using a standard plate reader. […] TNF-alpha Stimulation: In some experiment endothelial cells were stimulate with 50 ng/ml of TNF (Sigma) for 6 hours in order to induce vascular inflammation before blood perfusion. Experiments with Blood: Blood Samples And Endothelium: Citrated human blood (Research Blood Components, Cambridge, Mass.) was used within 4 hours of a blood draw in order to minimize pre-analytical effects on platelet function. Before every experiment, each one of the endothelialized channels (i.e. microchannels having an endothelial cell layer) was inspected via light microscopy. Samples showing any sign of discontinuity in the endothelium were discarded. […] USA) was at room temperature for 20 minutes. […]

re-calcified blood = assay: On-chip anticoagulation of outflowing re-calcified blood through the anticoagulant port; details: sodium citrate introduced through the anticoagulant port next to the outflow port
Description: In order to functionally test the system, re-calcified blood was perfused through the inlet while anticoagulant, e.g. citrate buffer, was introduced online from the port situated next to the outflow port. Thus, blood obtained from the effluent of chips equipped with the anticoagulant port or without anticoagulant port were compared (FIG. 6). From a qualitative point of view the difference was striking.
In order to functionally test the additive channel (i.e. microfluidic chamber(s)) attached to the outflow port of a Vessel-On-Chip, re-calcified blood was perfused through the inlet port while citrate was introduced online from a port situated next to the outflow port, flowing through the additive channel. Thus, blood obtained from the effluent of chips equipped with the anticoagulant port (additive channel) or without anticoagulant port were compared (FIG. 6). From a qualitative point of view the difference was striking.

[1] = test system: thrombin anti-thrombin complex (TAT); assay: Thrombin anti-thrombin (TAT) ELISA in plasma from chip effluent; details: outflow samples; TNF-α pre-treatment of endothelium, or sCollagen or hu5C8/sCD40L in blood before perfusion
Procedure: Thrombin converts fibrinogen into fibrin during clot formation, and anti-thrombin plays a role in maintaining homeostasis by inhibiting the effect of thrombin. Formation of TAT in the microdevice confirms that local and intrinsic generation of thrombin, a potent platelet agonist, occurs in the model and that counter regulatory mechanisms for coagulation are retained. Thus, blood sampled from the Vessel-On-Chip was analyzed for thrombin anti-thrombin complex (TAT), an accepted clinical biomarker for procoagulation^48,49. […] An enzyme-linked immunosorbent assay (ELISA) was used to quantify the thrombin anti-thrombin complex (TAT).
Thrombin-Anti Thrombin (TAT) measurement via ELISA: Thrombin Anti-Thrombin (TAT) levels were analyzed in plasma from blood flowing out of the chip device by removing a sample from the outflow port. Thus TAT levels were evaluated in sample effluents collected from the outflow port of the chip using the Human TAT ELISA Kit (Siemens Healthineers) according to the user manual.
Blood sampled from the Vessel-On-Chip outflow port was analyzed for thrombin anti-thrombin complex (TAT), a factor released upon activation of the coagulation cascade and one of the biomarkers associated with thrombotic events occurring in patients affected with deep vein thrombosis (DVT) or SLE^45,46. […]

ICAM1 = ICAM1 immunostaining of endothelium on-chip; details: TNF-α 50 ng/ml, 6 hours
Description: ICAM1 is shown with examples identified by white arrows. One example of a DAN stained nuclei is shown inside of a white circle.
Diverse structural characteristics of blood clots induced by the two experimental stimuli were captured via scanning electron microscopy (SEM) as colored images in FIG. 18D.

[2] = test system: hu5C8-mediated thrombosis; assay: hu5C8-mediated thrombosis on-chip, FcγRIIa dependence (platelet coverage, fibrin deposition, TAT); details: with sCD40L 10 ng/ml, IV.3 1 μg/ml pre-block of FcγRIIa, or IgG2σ variant in place of hu5C8
Description: Recent studies conducted on humanized mice expressing the human Fcγ receptors (FCGR2A) have shown that this receptor plays a role in thrombosis leading to the IC-mediated toxicity^12,16,21. […] In order to investigate if the IC5c8-induced thrombosis that we observed in our vessel-on-chip system also relies on an Fc-mediated mechanism, we used two different tool molecules: IgG2σ and IV.3 (FIG. 25A). The IgG2σ variant of hu5C8 has an engineered Fe region^48 that eliminates affinity for the FcγRIIa, while the monoclonal antibody IV.3 is a blocking antibody binding to FcγRIIa. Briefly, equimolar concentrations of IgG2σ or hu5c8 were incubated with 10 ng/ml of sCD40L for 20 minutes to form ICIgG2σ or IC5c8, respectively.
Some of the blood samples were treated with IV.3 (1 μg/ml) for 10 minutes to block the FcγRIIa, and then incubated for 20 more minutes with IC5c8. Finally, blood alone (control) or blood incubated with IC5c8, ICIgG2σ or IV.3 was perfused through the biomimetic microfluidic-on-chip for about 10 minutes. We tested 15 donors and all the tested conditions described above were tested in duplicates and analyzed as percentage of platelet coverage based on fluorescence microscopic imaging (FIG. 25B). Five of the donors were also tested for fibrin deposition (FIG. 25C). Finally, effluents plasma obtained from a total of 7 of the donors (including the 5 mentioned before) were used to assess TAT via ELISA (FIG. 25D). […]
Blood from several human donors were aliquoted into groups for the following treatments: controls (PBS), sCD40L, combined hu5C8/sCD40L, combined hu5C8 (IgG2σ)/sCD40L combined, and combined hu5C8/sCD40L/IV.3. Each condition was tested with a minimum of 3 donors to a maximum of 15 donors, and all conditions were tested in duplicates and analyzed for platelet coverage (FIG. 25B), fibrin deposition (FIG. 25C), or increased formation of TAT measured in the eluates (FIG. 25D). […]

[3] = TNF-α 50 ng/ml 6 hours endothelial pre-treatment or sCollagen 10 μg/ml in blood, vs blood alone

N=C(N)NCCCC[C@@H]1NC(=O)CCSSC[C@@H](C(N)=O)NC(=O)[C@@H]2CCCN2C(=O)[C@H](Cc2c[nH]c3ccccc23)NC(=O)[C@H](CC(=O)O)NC(=O)CNC1=O [Eptifibatide] ([Mpa][hArg]GDWPC-NH2; disulfide 1-7)
effects of pro-thrombotic conditions (TNF-α, sCollagen) on platelet coverage and fibrin deposition (platelets; adding Eptifibatide, n=4 donors (FIG. 18E)): suppressed
fibrin signal (image analysis) (fibrin; Eptifibatide 2 ug/ml, samples treated with TNF-α, n=4): still detectable

O=C(O)CC(O)(CC(=O)O)C(=O)O [sodium citrate]
state of blood collected at the end of each experiment (re-calcified blood): soluble (not clotted)

TNF-α
areas of platelet coverage (platelets; [3]): increased
fibrin signal intensity (fibrin; [3]): increased
levels of TAT [1]: significantly increased; also recorded: elevated
expression of ICAM1 in the endothelium compared to the control (ICAM1): increased expression

hu5C8: humanized monoclonal IgG1 antibody against CD40L (anti-CD154)
platelet aggregate formation compared to untreated blood (platelets): no significant treatment-related effects
fibrin deposition on the endothelium compared to untreated blood (fibrin): no significant treatment-related effects

sCD40L: soluble CD40 ligand; recombinant human sCD40 Ligand
platelet aggregate formation compared to untreated blood (platelets): no significant treatment-related effects
increase in platelet coverage over untreated control, some donors (platelets; sCD40L alone, Example 5): about 2 fold
mean increase in platelet coverage compared to controls (platelets; sCD40L alone, Example 5): not statistically significant
fibrin deposition on the endothelium compared to untreated blood (fibrin): no significant treatment-related effects

B1: hu5C8 (IgG2σ): IgG2σ variant of hu5C8 with engineered Fc region that eliminates affinity for FcγRIIa (antibody, chains of the INN, looked up, V domains shown)
VH: QVQLVQSGAEVVKPGASVKLSCKASGYIFTSYYMYWVKQAPGQGLEWIGEINPSNGDTNFNEKFKSKATLTVDKSASTAYMELSSLRSEDTAVYYCTRSDGRNDMDSWGQGTLVTVSS
VL: DIVLTQSPATLSVSPGERATISCRASQRVSSSTYSYMHWYQQKPGQPPKLLIKYASNLESGVPARFSGSGSGTDFTLTISSVEPEDFATYYCQHSWEIPPTFGGGTKLEIK
modifications: IgG2σ engineered Fc lacking FcγRIIa binding
hu5C8-mediated thrombosis on-chip (platelet coverage, fibrin deposition, TAT) [2]: did not show signs of thrombosis
hu5C8-mediated thrombosis on-chip (platelet coverage, fibrin deposition, TAT) ([2]; listed as IgG2σ): suppressed
hu5C8-mediated thrombosis on-chip (platelet coverage, fibrin deposition, TAT) ([2]; listed as hu5C8-IgG2σ): not detected
